This note sets out measurements from patent publication US11807644B2 (PMV Pharmaceuticals, Inc., priority 2020, dated 2023).

SMILES strings stand for the structures.

The target of one experiment is T1, recombinant His-tag Y220C p53 DBD protein (Homo sapiens, UniProt P04637, Y220C).
T1 construct: recombinant His-tag Y220C p53 DBD protein (amino acids #˜94-312)
The experiment can be described thus: In vitro DNA binding activity assay (TR-FRET): binding of His-tag Y220C p53 DBD to biotin-labeled consensus DNA. The following applies: SC150 = concentration to increase DNA binding by […], His-tag Y220C p53 DBD, biotin-labeled consensus DNA. The format is biochemical. A general note: TR-FRET usually uses a lanthanide donor and a delayed reading to cut background.
As for `CCN1CC[C@@H](Nc2cccc3c2cc(-c2noc(CNC(=O)c4cnn(C5CCOCC5)c4)n2)n3CC(F)(F)F)[C@@H](F)C1` [Compound 334B, N-{[3-(4-{[(3S,4R)-1-ethyl-3-fluoropiperidin-4-yl]amino)-1-(2,2,2-trifluoroethyl)-1H-indol-2-yl)-1,2,4-oxadiazol-5-yl]methyl}-1-(oxan-4-yl)-1H-pyrazole-4-carboxamide], the “Y220C SC150 (μM)” value is reported as “* (* = 0 μM ≤ SC150 < 0.1 μM)”.

As to `CN1CCC(Nc2cccc3c2cc(-c2nnc(CNC(=O)c4ccc(F)cc4)s2)n3CC(F)(F)F)CC1` [Compound 52B, 4-fluoro-N-[(5-{4-[(1-methylpiperidin-4-yl)amino]-1-(2,2,2-trifluoroethyl)-1H-indol-2-yl}-1,3,4-thiadiazol-2-yl)methyl]benzamide], the “Y220C SC150 (μM)” value is recorded as “* (* = 0 μM ≤ SC150 < 0.1 μM)”.

In the case of `COC(C)(C)c1nc(C(=O)NCc2nc(-c3cc4c(N[C@@H]5CCN(C)C[C@@H]5F)cccc4n3CC(F)(F)F)no2)cs1` [Compound 530B, N-{[3-(4-{[(3S,4R)-3-fluoro-1-methylpiperidin-4-yl]amino}-1-(2,2,2-trifluoroethyl)-1H-indol-2-yl)-1,2,4-oxadiazol-5-yl]methyl}-2-(2-methoxypropan-2-yl)-1,3-thiazole-4-carboxamide], the “Y220C SC150 (μM)” value is “* (* = 0 μM ≤ SC150 < 0.1 μM)”.

Turning to `COc1cc(S(C)(=O)=O)ccc1NCc1nc(-c2cc3c(N[C@@H]4CCN(C)C[C@@H]4F)cccc3n2CC(F)(F)F)no1` (racemic) [Compound 183B, (+/−)-N-[(3R,4S)-3-fluoro-1-methylpiperidin-4-yl]-2-(5-{[(4-methanesulfonyl-2-methoxyphenyl)amino]methyl}-1,2,4-oxadiazol-3-yl)-1-(2,2,2-trifluoroethyl)-1H-indol-4-amine], the “Y220C SC150 (μM)” value was “* (* = 0 μM ≤ SC150 < 0.1 μM)”.

Regarding `COCC(C)n1cc(C(=O)NCc2nc(-c3cc4c(N[C@@H]5CCN(C)C[C@@H]5F)cccc4n3CC(F)(F)F)no2)cn1` (stereo partly drawn) [Compound 302B, N-{[3-(4-{[(3S,4R)-3-fluoro-1-methylpiperidin-4-yl]amino}-1-(2,2,2-trifluoroethyl)-1H-indol-2-yl)-1,2,4-oxadiazol-5-yl]methyl}-1-(1-methoxypropan-2-yl)-1H-pyrazole-4-carboxamide], the “Y220C SC150 (μM)” value is listed as “* (* = 0 μM ≤ SC150 < 0.1 μM)”.

As for `COC1CCC(n2ccc(C(=O)NCc3nc(-c4cc5c(N[C@@H]6CCN(C)C[C@@H]6F)cccc5n4CC(F)(F)F)no3)c2)C1` (stereo in doubt) [Compound 360B, N-{[3-(4-{[(3S,4R)-3-fluoro-1-methylpiperidin-4-yl]amino}-1-(2,2,2-trifluoroethyl)-1H-indol-2-yl)-1,2,4-oxadiazol-5-yl]methyl}-1-[(1R,3R)-3-methoxycyclopentyl]-1H-pyrrole-3-carboxamide], the “Y220C SC150 (μM)” value is on record as “* (* = 0 μM ≤ SC150 < 0.1 μM)”.

For `CN1CC[C@@H](Nc2cccc3c2cc(-c2noc(CNC(=O)c4ccc(C(C)(C)C)n4C)n2)n3CC(F)(F)F)[C@@H](F)C1` [Compound 542B, 5-tert-butyl-N-{[3-(4-{[(3S,4R)-3-fluoro-1-methylpiperidin-4-yl]amino}-1-(2,2,2-trifluoroethyl)-1H-indol-2-yl)-1,2,4-oxadiazol-5-yl]methyl}-1-methyl-1H-pyrrole-2-carboxamide], the “Y220C SC150 (μM)” value was “* (* = 0 μM ≤ SC150 < 0.1 μM)”.

For the molecule `CN1CC[C@@H](Nc2cccc3c2cc(-c2noc(CNc4cccc5c4cnn5C)n2)n3CC(F)(F)F)[C@@H](F)C1` [Compound 463B, N-{[3-(4-{[(3S,4R)-3-fluoro-1-methylpiperidin-4-yl]amino}-1-(2,2,2-trifluoroethyl)-1H-indol-2-yl)-1,2,4-oxadiazol-5-yl]methyl}-1-methyl-1H-indazol-4-amine], the “Y220C SC150 (μM)” value was “* (* = 0 μM ≤ SC150 < 0.1 μM)”.

On to `CN1CC[C@@H](Nc2cccc3c2cc(-c2noc(CNC(=O)c4ccc(N5CCC(F)(F)CC5)cc4)n2)n3CC(F)(F)F)[C@@H](F)C1` [Compound 256B, 4-(4,4-difluoropiperidin-1-yl)-N-{[3-(4-{[(3S,4R)-3-fluoro-1-methylpiperidin-4-yl]amino}-1-(2,2,2-trifluoroethyl)-1H-indol-2-yl)-1,2,4-oxadiazol-5-yl]methyl}benzamide], for which the “Y220C SC150 (μM)” value is reported as “* (* = 0 μM ≤ SC150 < 0.1 μM)”.

`CN1CCC(Nc2cccc3c2cc(-c2noc(CNC(=O)c4ccc(C#N)cc4)n2)n3CC(F)(F)F)CC1` [Compound 151B, 4-cyano-N-[(3-{4-[(1-methylpiperidin-4-yl)amino]-1-(2,2,2-trifluoroethyl)-1H-indol-2-yl}-1,2,4-oxadiazol-5-yl)methyl]benzamide]: the “Y220C SC150 (μM)” value is listed as “* (* = 0 μM ≤ SC150 < 0.1 μM)”.

Turning to `CN1CC[C@H](Nc2cccc3c2cc(-c2nnc(CNC(=O)c4ccccc4)s2)n3CC(F)(F)F)[C@H](F)C1` [Compound 26B, N-{[5-(4-{[(3R,4S)-3-fluoro-1-methylpiperidin-4-yl]amino}-1-(2,2,2-trifluoroethyl)-1H-indol-2-yl)-1,3,4-thiadiazol-2-yl]methyl}benzamide], the “Y220C SC150 (μM)” value is “** (** = 0.1 μM ≤ SC150 < 0.5 μM)”.

As to `COCCn1cc(C(=O)NCc2nc(-c3cc4c(N[C@@H]5CCN(C)C[C@@H]5F)cccc4n3CC(F)(F)F)no2)cn1` [Compound 290B, N-{[3-(4-{[(3S,4R)-3-fluoro-1-methylpiperidin-4-yl]amino}-1-(2,2,2-trifluoroethyl)-1H-indol-2-yl)-1,2,4-oxadiazol-5-yl]methyl}-1-(2-methoxyethyl)-1H-pyrazole-4-carboxamide], the “Y220C SC150 (μM)” value is “* (* = 0 μM ≤ SC150 < 0.1 μM)”.

Consider `CN1CC[C@@H](Nc2cccc3c2cc(-c2noc(CNC(=O)c4cnn(C5CCC(F)(F)C5)c4)n2)n3CC(F)(F)F)[C@@H](F)C1` (stereo partly drawn) [Compound 344B, 1-(3,3-difluorocyclopentyl)-N-{[3-(4-{1[(3S,4R)-3-fluoro-1-methylpiperidin-4-yl]amino}-1-(2,2,2-trifluoroethyl)-1H-indol-2-yl)-1,2,4-oxadiazol-5-yl]methyl}-1H-pyrazole-4-carboxamide], for which the “Y220C SC150 (μM)” value is “* (* = 0 μM ≤ SC150 < 0.1 μM)”.

`CN1CC[C@@H](Nc2cccc3c2cc(-c2noc(CNC(=O)c4ccn(C(C)(C)C5CC5)c4)n2)n3CC(F)(F)F)[C@@H](F)C1` [Compound 423B, 1-(2-cyclopropylpropan-2-yl)-N-{[3-(4-{[(3S,4R)-3-fluoro-1-methylpiperidin-4-yl]amino}-1-(2,2,2-trifluoroethyl)-1H-indol-2-yl)-1,2,4-oxadiazol-5-yl]methyl}-1H-pyrrole-3-carboxamide]: the “Y220C SC150 (μM)” value was “* (* = 0 μM ≤ SC150 < 0.1 μM)”.

Staying with this experiment, now noted: concentration to increase DNA binding by […], incubated at either 27° C. or 29° C. for 60 min.
For the molecule `CN1CC[C@H](Nc2cccc3c2cc(-c2ccc(CNC(=O)c4ccccc4)cc2)n3CC(F)(F)F)[C@H](F)C1` (racemic) [Compound 45A, (+/−)-N-{[4-(4-{[(3R,4S)-3-fluoro-1-methylpiperidin-4-yl]amino}-1-(2,2,2-trifluoroethyl)-1H-indol-2-yl)phenyl]methyl}benzamide], the “SC150 (μM)” value is recorded as “+ (+ = 0 μM ≤ SC150 < 2 μM)”.

Regarding `CC(C)(C)c1ccc(C(=O)NCc2ccc(-c3cc4c(NC5CCS(=O)(=O)CC5)cccc4n3CC(F)(F)F)cc2)cc1` [Compound 15A, 4-tert-butyl-N-[(4-{4-[(1,1-dioxo-1λ^6-thian-4-yl)amino]-1-(2,2,2-trifluoroethyl)-1H-indol-2-yl}phenyl)methyl]benzamide], the “SC150 (μM)” value was “+++ (+++ = 5 μM ≤ SC150 < 10 μM)”.
